Assay results reported in US20250388565A1, “ESTROGEN RECEPTOR ALPHA DEGRADERS AND METHODS OF USE THEREOF” (Relay Therapeutics, Inc., priority 2022, published 2025).

Target: T1, ERα protein (HiBiT-tagged) in ESR1_HiBiT KI MCF7 cells (Homo sapiens, UniProt P03372)
T1 sequence (P03372 1-595): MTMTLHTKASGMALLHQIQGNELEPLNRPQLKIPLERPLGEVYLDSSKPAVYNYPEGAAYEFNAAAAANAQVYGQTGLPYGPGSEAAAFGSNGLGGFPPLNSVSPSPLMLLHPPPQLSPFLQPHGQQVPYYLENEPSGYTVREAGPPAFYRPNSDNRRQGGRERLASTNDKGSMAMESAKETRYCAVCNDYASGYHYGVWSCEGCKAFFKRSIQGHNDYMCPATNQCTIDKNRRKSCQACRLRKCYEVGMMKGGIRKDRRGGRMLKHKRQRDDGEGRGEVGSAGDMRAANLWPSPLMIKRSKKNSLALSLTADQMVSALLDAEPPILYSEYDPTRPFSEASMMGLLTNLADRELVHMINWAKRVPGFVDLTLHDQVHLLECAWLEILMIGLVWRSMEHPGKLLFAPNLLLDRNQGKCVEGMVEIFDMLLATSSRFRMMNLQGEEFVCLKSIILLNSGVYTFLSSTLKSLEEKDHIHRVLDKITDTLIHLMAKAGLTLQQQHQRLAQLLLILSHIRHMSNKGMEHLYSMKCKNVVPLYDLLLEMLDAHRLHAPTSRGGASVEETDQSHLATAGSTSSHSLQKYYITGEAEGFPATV
Assay: Nano Glo HiBiT Lytic Degradation Assay
Type: cell-based
Settings: 6 hours with compound, 14-point dose response 1:3, bell-shape curve fit, half-maximal effect of first Hill model, read-out: MCF7 ESR1 HiBiT - (DC50)
How it was run: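 HiBiT-tagged endogenous ERα remaining in MCF7 knock-in cells was quantified by lytic luminescence after a 6 h treatment. DC50 values derive from a bell-shaped curve, taken at the first Hill component's half-maximal effect.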

| Compound | DC50 |
| --- | --- |
| O=C1CC[C@H](N2Cc3cc(N4CCN(CC5CCN(c6ccc([C@H]7c8ccc(O)cc8CC[C@H]7c7ccccc7)cc6F)CC5)CC4)ccc3C2=O)C(=O)N1 [II-81] | ≥ 10000 nM |
| O=C1CC[C@H](N2Cc3cc(N4CCN(CC5CCN(c6ccc([C@@H]7c8ccc(O)cc8CC[C@@H]7c7ccccc7)cc6F)CC5)CC4)ccc3C2=O)C(=O)N1 [II-82] | 0.84 nM |
| O=C1CC[C@H](N2Cc3cc(N4CCN(CC5CCN(c6c(F)cc([C@H]7c8ccc(O)cc8CC[C@H]7c7ccccc7)cc6F)CC5)CC4)ccc3C2=O)C(=O)N1 [II-83] | 424 nM |
| O=C1CC[C@H](N2Cc3cc(N4CCN(CC5CCN(c6c(F)cc([C@@H]7c8ccc(O)cc8CC[C@@H]7c7ccccc7)cc6F)CC5)CC4)ccc3C2=O)C(=O)N1 [II-84] | 0.8 nM |
| O=C1CC[C@H](N2Cc3cc(N4CCN(CC5CCN(c6ccc([C@H]7c8ccc(O)cc8CC[C@H]7c7ccccc7)c(F)c6)CC5)CC4)ccc3C2=O)C(=O)N1 [II-85] | 1090 nM |
| O=C1CC[C@H](N2Cc3cc(N4CCN(CC5CCN(c6ccc([C@@H]7c8ccc(O)cc8CC[C@@H]7c7ccccc7)c(F)c6)CC5)CC4)ccc3C2=O)C(=O)N1 [II-86] | 0.61 nM |
| O=C1CC[C@H](N2Cc3cc(N4CCN(CC5CCN(c6ccc([C@@H]7c8ccc(O)cc8CC[C@@H]7c7ccc(F)cc7)cc6)CC5)CC4)ccc3C2=O)C(=O)N1 [II-94] | 0.64 nM |
| O=C1CC[C@H](N2Cc3cc(N4CCN(CCC5CCN(c6ccc([C@@H]7c8ccc(O)cc8CC[C@@H]7c7ccccc7)cc6)CC5)CC4)ccc3C2=O)C(=O)N1 [II-97] | 0.79 nM |
| O=C1CC[C@H](N2Cc3cc(N4CCN(CCC5CCN(c6ccc([C@H]7c8ccc(O)cc8CC[C@H]7c7ccccc7)cc6)CC5)CC4)ccc3C2=O)C(=O)N1 [II-98] | ≥ 10000 nM |
| O=C1CC[C@H](N2Cc3cc(N4CCN(CC5CCN(c6ccc([C@H]7c8ccc(O)cc8CC[C@H]7c7ccc(F)cc7)cc6)CC5)CC4)ccc3C2=O)C(=O)N1 [II-101] | ≥ 10000 nM |
| O=C1CC[C@H](N2Cc3cc(N4CCN(CC5CCN(c6cc(F)c([C@@H]7c8ccc(O)cc8CC[C@@H]7c7ccccc7)c(F)c6)CC5)CC4)ccc3C2=O)C(=O)N1 [II-102] | 0.15 nM |
| O=C1CC[C@H](N2Cc3cc(N4CCN(CC5CCN(c6cc(F)c([C@H]7c8ccc(O)cc8CC[C@H]7c7ccccc7)c(F)c6)CC5)CC4)ccc3C2=O)C(=O)N1 [II-103] | ≥ 10000 nM |
| O=C1CCC(N2Cc3cc(C4=CCN(CC5CCN(c6ccc([C@@H]7c8ccc(O)cc8CC[C@@H]7c7ccccc7)cc6)CC5)CC4)ccc3C2=O)C(=O)N1 (stereo partly shown) [II-104] | 22 nM |
| O=C1CCC(N2Cc3cc(C4CCN(CC5CCN(c6ccc([C@@H]7c8ccc(O)cc8CC[C@@H]7c7ccccc7)cc6)CC5)CC4)ccc3C2=O)C(=O)N1 (stereo partly shown) [II-105] | ≥ 10000 nM |
| O=C1CCC(N2Cc3cc(N4CCN(CC5CCN(c6ccc([C@@H]7c8ccc(O)cc8CC[C@@H]7c7ccc(F)cc7)cc6)CC5)CC4)ccc3C2=O)C(=O)N1 (stereo partly shown) [II-109] | 1.05 nM |
| O=C1CC[C@@H](N2Cc3cc(N4CCN(CC5CCN(c6ccc([C@@H]7c8ccc(O)cc8CC[C@@H]7c7ccc(F)cc7)cc6)CC5)CC4)ccc3C2=O)C(=O)N1 [II-110] | 0.88 nM |
